What is called TGI is the concentration giving total growth inhibition. The low end stands for greater sensitivity of the cells, the high end for lower sensitivity of the cells. As a reminder, the GI50 is the concentration at which growth is held to half of that of the control. The low end stands for greater sensitivity of the cells, the high end for lower sensitivity of the cells.

What all share (assay type): functional
Test [1] in a line: Total growth inhibition of NCI panel of 60 human cancer cell lines.
Test [2] in a line: Growth inhibitory concentration against NCI panel of 60 human cancer cell lines.
Test [3] is described as follows: Mean cytotoxicity towards NCI panel of 60 human cancer cell lines. The settings on record: read-out: LC50 (the source's name).

In test [1], `COc1cc(C(=O)O[C@H](C(=O)NCCNC(=O)[C@@H](OC(=O)c2cc(OC)cc3c(C)cccc23)[C@]2(C)CO2)[C@]2(C)CO2)c2cccc(C)c2c1` displayed a TGI of 2400 nM. Also, growth in test [2] was halved (GI50) at 72 nM. Moreover, the CC50 in test [3] was found to be 62000 nM.
As to `COc1cc(C(=O)O[C@H](C(=O)NCCCCCNC(=O)[C@@H](OC(=O)c2cc(OC)cc3c(C)cccc23)[C@]2(C)CO2)[C@]2(C)CO2)c2cccc(C)c2c1`, net growth in test [1] stopped (TGI) at 3400 nM. Besides, in test [2], growth was halved (GI50) at 178 nM. Besides, the CC50 in test [3] worked out at 50000 nM.
For `COc1cc(C(=O)O[C@H](C(=O)NCCCCNC(=O)[C@@H](OC(=O)c2cc(OC)cc3c(C)cccc23)[C@]2(C)CO2)[C@]2(C)CO2)c2cccc(C)c2c1`, in that order: 550 nM, 53 nM and 14800 nM.
For `COc1cc(C(=O)O[C@H](C(=O)NCCCNC(=O)[C@@H](OC(=O)c2cc(OC)cc3c(C)cccc23)[C@]2(C)CO2)[C@]2(C)CO2)c2cccc(C)c2c1`, in that order: 210 nM, 31 nM and 3200 nM.
Compound `COc1cc(C(=O)O[C@H](C(N)=O)[C@]2(C)CO2)c2cccc(C)c2c1` had a TGI in test [1] of 2000 nM. This compound also registered a GI50 in test [2] of 214 nM. Moreover, in test [3], the CC50 was found to be 33000 nM.
The corresponding values for `COc1cc(C(=O)O[C@H](C(=O)NCCN(C)CCNC(=O)[C@@H](OC(=O)c2cc(OC)cc3c(C)cccc23)[C@]2(C)CO2)[C@]2(C)CO2)c2cccc(C)c2c1` are 350 nM, 28 nM and 14400 nM.

Source of the values: ChEMBL document CHEMBL1139594, “Azinomycin inspired bisepoxides: influence of linker structure on in vitro cytotoxicity and DNA interstrand cross-linking” (2005).
